Consider 1 compound from US20230181503A1, “FEED ADDITIVE” (LUCTA, S.A., priority 2020, published 2023).

SMILES strings stand for the structures.

This assay deals with IPEC-J2 cells (pig enterocytes). Kind of assay: Trans-epithelial electrical resistance (TEER) of IPEC-J2 monolayer. The format is cell-based. The settings on record: formulations 50 μg/mL, genistein 50 μM. The protocol:
Formulation C with HT:MA:OA at weight ratio 11:50:23 (50 μg/mL) and formulation D with HT:MA:OA at weight ratio 12:50:15 (50 μg/mL) were also tested on a cell line of pig enterocytes (IPEC-J2), at different conditions. IPEC-J2 cells were seeded into a permeable transwells membrane insert (6.5 mm diameter, 0.4 μm pore size, 0.33 cm2, polyester, Costar) at 1×10^5 cells/cm^2 to form a confluent monolayer within 4 days. Medium was replaced 48 h post-seeded and products were added on the apical side. On day 3 post-seeded, cells were treated with LPS (50 ng/mL) on the apical side and 24 h post-LPS stimulation epithelial cell integrity was assessed through the measurement of trans-epithelial electrical resistance (TEER) using a Millicell ERS-2 Voltohmmeter (Millipore, Billerica, Mass.). For each condition, triplicates were carried out in three independent experiments. At the end of incubation apical and basal media were eliminated and RNAlater solution (1 mL/well) was added to the cells for RNA stabilization and storage. Total RNA was extracted using RNA Mini Kit columns from Ambion (Life technologies, Carlsbad, Calif.) and stored at −80° C. for subsequent retrotranscription and quantitative RT-PCR. The extraction of total RNA was carried out using PureLink™ RNA Mini Kit according to the manufacturer's protocol. […]

`O=c1c(-c2ccc(O)cc2)coc2cc(O)cc(O)c12` [Genistein]: the TEER relative to DMSO control amounted to 107% (IPEC-J2, + LPS 50 ng/mL, 24 h post-LPS, LPS alone = 61.7) and 129% (IPEC-J2, without LPS, Control (DMSO) = 100).
